Here are results for three compounds from patent US5686458A, “Quinazoline deriviates for treating peptic ulcer” (Yuhan Corporation, priority 1992, dated 1997).

The target in experiment [1] is T1, Proton Pump (H^+ /K^+ ATPase) (Oryctolagus cuniculus, UniProt P27112).
T1 construct: The microsomes thus obtained were used as an enzyme source of the in vitro enzyme reaction study of proton pump; from tissue; host or cells: rabbit stomach, mucosal scrapings, microsomes (180,000 g pellet)
Briefly: Inhibition of Proton Pump (H+/K+ ATPase) Activity, in vitro enzyme reaction (Experiment 1). In kind it is biochemical, New Zealand white rabbit. Particulars: for Effect ratio: IC50 of Omeprazole / IC50 of test compound; for IC50: K+-stimulated H+/K+ ATPase activity, rabbit gastric microsomes, pH 7.2, 37° C., 15 min prereaction, 30 min reaction, read-out: IC50 of test compound, inhibition (50%) of the proton pump activity. In a few lines:
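Rabbit gastric mucosal microsomes (100 μg/ml) in 50 mM Tris-HCl pH 7.2 with 8 mM MgCl2, 100 mM KCl and 20 mM NH4Cl were preincubated with compound for 15 min at 37 °C. Reaction ran 30 min at 37 °C with 6.7 mM ATP; released phosphate was measured. K+-stimulated activity (Mg/K minus Mg alone) gave IC50 via Litchfield-Wilcoxon.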

In the next experiment the test system is gastric secretion. Briefly: Inhibition of Gastric Secretion, pylorus-ligated rats (Experiment 2). In kind it is in vivo, Sprague-Dawley rats. Particulars: relative to omeprazole (equation III), 20 mg/kg intraduodenally, pylorus-ligated rats, 5 hours. In a few lines:
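Sprague-Dawley rats (170±10 g, n=5/group), fasted 24 h, pylorus-ligated under ether; compounds given intraduodenally at 20 mg/kg in 30% aqueous PEG 400. Gastric juice collected after 5 h, volume and acidity measured; relative volume, acid concentration and acid output computed versus vehicle and omeprazole groups.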

The test system of experiment [2] is gastric secretion stimulated by histamine. In words: Anti-secretory effects when gastric secretion is stimulated by histamine (Experiment 3-1). Format: in vivo, Sprague-Dawley male rats. Particulars: intravenous. Here is the method: In accordance with the method [see Ghosh and Shild, et al., British Journal of pharmacology 13:54-61 (1958)], anti-secretory effects of the test substances were studied in this Experiment. Sprague-Dawley male rats having a body weight of 200±20 g were divided into 3 groups, Group 1 to be administered with the compound of Example 34, Group 2 to be administered with SK&F96067[see Keeling, D. […] The rats of each Group, deprived of food for 24 hours before the experiment with free access to water, were anesthetized by intraperitoneally administering of 1.5 g/kg of 20% aqueous urethane solution and positioned on the test plate which was heated and maintained at 37° C. The anesthetized rats were cannulated at the right jugular vein for the administration of the test compounds and the left jugular vein for the administration of stimulating substances. After an abdominal incision, tubes were inserted into the esophagus and duodenum, each of which was connected with saline in a thermostat and a fraction collector. […] To the left jugular vein, histamine was administered as a gastric secretion stimulator. […] The gastric secretion inhibition (%) of the test compounds was calculated from the following equation: The gastric secretion inhibition (%) of the test compounds =(A-C)/(A-B)×100 . . . (IV) in which […]

The test system of experiment [3] is gastric secretion stimulated by pentagastrin. Briefly: Inhibition of gastric secretion stimulated by pentagastrin (Experiment 3-2). In kind it is in vivo, Sprague-Dawley male rats. Particulars: intravenous.
Experiment [4] addresses T2, H^+ /K^+ ATPase (proton pump), gastric vesicles (Sus scrofa, UniProt P19156).
T2 construct: Gastric vesicles were prepared from pig stomach; from tissue; host or cells: pig stomach, lyophilized gastric vesicles
In words: Determination of H+/K+ ATPase activity, Lineweaver-Burk kinetics versus K+ (Experiment 4-2). In kind it is biochemical, pig. On the procedure: Gastric vesicles were prepared from pig stomach by the method described in Saccomani G., et al., J. Biol. Chem. 250, 4802-4809 (1975). The vesicles were lyophilized and kept at -70° C. The protein content was determined by the method of Lowry et al., using bovine serum albumin as standard[see Lowry, O. H., Rosebrough, N. J. and Randall, R. J., J. Biol. Chem. 193, 265-275 (1951)].
Test tubes were divided into 4 groups, each having 3 test tubes. As a control group, group 1 was added with the 10 μl of DMSO. Groups 2, 3 and 4 were administered with the compound prepared in example 34 whose final concentration are 0.17 μM, 0.33 μM and 0.67 μM, respectively. Each group was further divided into 3 small groups, in which enzymes were activated by ATP; ATP and Mg^++; and ATP, Mg^++ and K^+, respectively.
To all of the test tubes, were added 100 μl of lyophilized vesicles prepared at the concentration of 25 μg protein/ml and then 90 μl of 5 mM Pipes/Tris buffer pH 7.0. The compound prepared in Example 34 was added to each Group until the final concentration thereof became 0.17, 0.33 or 0.67 μM, respectively, They were preincubated for 15 minutes.
50 μl of ATP(3 mM) was added to each of the four Groups and the 50 μl of MgCl2 (2 mM) was added only to the 2nd and 3rd small groups of all Groups. Further, to the 3rd small groups of all Groups, were added 50 μl of KCl solution of various concentrations(from 0.1 mM to 30 mM) and then 150μl of Pipes/Tris buffer of pH 7.0. To the rest small groups, Pipes/Tris buffer of pH 7.0 was added until the volume became the same as that of the 3rd small group.
The test tube's were incubated at 37° C. for 30 minutes and then the reaction was terminated by adding 25% cold trichloroacetic acid solution. They were centrifuged by means of a microcentrifuge and the supernatant was taken up for the measurement of the released inorganic phosphate content by an automatic analyzer(CIBA CORNING, Express 550).
In accordance with the same procedures as above, except that 15 and 30 μm of omeprazole and 0.75, 1.5 and 3.0 μm of SK&F96067 were used as comparative substances, released inorganic phosphate content was measured.
The released inorganic phosphate contents of the three small groups were considered as the activity of H^+ /K^+ ATPase at each of the concentrations employed. The specific activity of H^+ /K^+ ATPase was calculated from the following equation:
Specific activity=(A-C)-(B-C) . . . (V)
A is the activity of enzyme activated by ATP, Mg^++ and , K^+ ;
B is the activity of enzyme activated by ATP and M^++ and
C is the activity of enzyme activated by ATP.
The specific activity, thus calculated, of Groups 1, 2, 3 and 4 which employed DMSO and the compound of Example 34 at 3 different concentrations were then plotted with respect to the concentration of KCl in FIG. 1 according to the method of Lineweaver-Burk, wherein .box-solid., .quadrature. and .largecircle. represent the respective concentrations of the compound of Example 34 of 0.67 μM, 0.33 μM and 0.17 μM; and .oval-solid. represents concentration of the DMSO compound. FIG. 2 depicts the Lineweaver-Burk plot of the specific activities obtained from SK&F96067, wherein .box-solid., .quadrature. and .largecircle. represent its respective concentrations of 3.0 μM, 1.5 μM, 0.75 μM; and .oval-solid. represents concentration of the DMSO compound. FIG. 3 illustrates the Lineweaver-Burk plot of the specific activities obtained from omeprazole, wherein .oval-solid. and .quadrature. represent its concentrations of 15 μM and 30 μM; and .largecircle. represents the concentration of DMSO.

Experiment [5] has as its target T3, H^+ /K^+ ATPase, gastric vesicles (Sus scrofa, UniProt P19156).
T3 construct: Gastric vesicles were prepared from pig stomach; from tissue; host or cells: pig stomach, lyophilized gastric vesicles
Briefly: Reversibility of inhibition, Dilution and Washout method (Experiment 4-3). In kind it is biochemical, pig. On the procedure:
The vesicles were lyophilized and kept at -70° C.
To all […] groups, was added 100 μl of lyophilized vesicles prepared in Experiment 4-1 at the concentration of 100 μg protein 1 ml. Then, 5 mM Pipes/Tris buffer(pH 6.4 ) was added to the three groups until the volume of test tubes became 150 μl. After the preincubation for 15 minutes, H^+ /K^+ ATPase activity was measured in accordance with the same procedures as in Experiment 4-2. The concentrations of the test substances as indicated above are the final concentrations.
After the completion of preincubation, each group was diluted 50 times with 5 mM Pipes/Tris buffer(pH 6.4), and then centrifuged for 60 minutes by means of Beckman ultracentrifuge(Model L8-80). The supernatant was discarded and the pellet was suspended with 5 mM Pipes/Tris buffer pH 6.4 until the volume became the same as the preincubation volume.

What is called IC50 is the concentration needed to halve the response being measured. The term ED50 denotes the midpoint of the dose-response relation. The Ki is a dissociation constant, usually derived from enzyme kinetics or from competition with a known ligand.

T1 sequence (P27112 whole entry): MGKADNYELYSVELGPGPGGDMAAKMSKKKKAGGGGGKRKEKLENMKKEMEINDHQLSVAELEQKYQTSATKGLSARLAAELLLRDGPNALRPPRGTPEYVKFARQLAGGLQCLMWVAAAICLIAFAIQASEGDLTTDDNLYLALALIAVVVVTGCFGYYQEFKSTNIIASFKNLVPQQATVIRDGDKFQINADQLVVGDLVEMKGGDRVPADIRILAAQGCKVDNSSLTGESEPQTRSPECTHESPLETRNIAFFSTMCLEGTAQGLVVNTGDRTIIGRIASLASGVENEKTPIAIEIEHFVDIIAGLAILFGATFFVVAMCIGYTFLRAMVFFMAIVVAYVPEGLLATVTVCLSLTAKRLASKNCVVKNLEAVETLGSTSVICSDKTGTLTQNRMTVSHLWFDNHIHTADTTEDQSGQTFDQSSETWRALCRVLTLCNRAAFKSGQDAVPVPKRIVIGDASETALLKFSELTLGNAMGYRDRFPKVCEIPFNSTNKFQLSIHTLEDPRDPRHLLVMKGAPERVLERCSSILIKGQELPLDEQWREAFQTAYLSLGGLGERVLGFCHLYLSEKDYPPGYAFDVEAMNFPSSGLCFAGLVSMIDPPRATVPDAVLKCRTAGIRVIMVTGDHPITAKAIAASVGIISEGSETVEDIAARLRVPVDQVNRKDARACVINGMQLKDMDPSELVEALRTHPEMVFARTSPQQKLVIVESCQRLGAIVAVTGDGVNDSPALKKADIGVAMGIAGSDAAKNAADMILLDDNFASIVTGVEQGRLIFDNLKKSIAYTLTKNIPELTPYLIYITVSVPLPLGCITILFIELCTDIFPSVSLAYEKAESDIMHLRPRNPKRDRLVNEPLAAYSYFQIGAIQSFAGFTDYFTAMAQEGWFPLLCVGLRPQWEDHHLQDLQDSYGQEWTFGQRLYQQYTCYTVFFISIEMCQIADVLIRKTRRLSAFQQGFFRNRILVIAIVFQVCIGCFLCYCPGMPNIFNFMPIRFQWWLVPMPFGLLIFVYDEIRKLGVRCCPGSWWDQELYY
T1 sequence (P18597 whole entry partner): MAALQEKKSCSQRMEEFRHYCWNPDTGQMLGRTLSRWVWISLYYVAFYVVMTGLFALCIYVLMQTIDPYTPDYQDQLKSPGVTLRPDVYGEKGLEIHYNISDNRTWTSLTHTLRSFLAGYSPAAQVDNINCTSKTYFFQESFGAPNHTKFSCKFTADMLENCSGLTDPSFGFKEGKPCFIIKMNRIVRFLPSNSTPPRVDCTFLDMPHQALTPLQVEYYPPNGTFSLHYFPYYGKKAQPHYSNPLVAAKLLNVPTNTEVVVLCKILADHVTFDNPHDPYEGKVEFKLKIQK
T2 sequence (P19156 2-1034 limits assumed): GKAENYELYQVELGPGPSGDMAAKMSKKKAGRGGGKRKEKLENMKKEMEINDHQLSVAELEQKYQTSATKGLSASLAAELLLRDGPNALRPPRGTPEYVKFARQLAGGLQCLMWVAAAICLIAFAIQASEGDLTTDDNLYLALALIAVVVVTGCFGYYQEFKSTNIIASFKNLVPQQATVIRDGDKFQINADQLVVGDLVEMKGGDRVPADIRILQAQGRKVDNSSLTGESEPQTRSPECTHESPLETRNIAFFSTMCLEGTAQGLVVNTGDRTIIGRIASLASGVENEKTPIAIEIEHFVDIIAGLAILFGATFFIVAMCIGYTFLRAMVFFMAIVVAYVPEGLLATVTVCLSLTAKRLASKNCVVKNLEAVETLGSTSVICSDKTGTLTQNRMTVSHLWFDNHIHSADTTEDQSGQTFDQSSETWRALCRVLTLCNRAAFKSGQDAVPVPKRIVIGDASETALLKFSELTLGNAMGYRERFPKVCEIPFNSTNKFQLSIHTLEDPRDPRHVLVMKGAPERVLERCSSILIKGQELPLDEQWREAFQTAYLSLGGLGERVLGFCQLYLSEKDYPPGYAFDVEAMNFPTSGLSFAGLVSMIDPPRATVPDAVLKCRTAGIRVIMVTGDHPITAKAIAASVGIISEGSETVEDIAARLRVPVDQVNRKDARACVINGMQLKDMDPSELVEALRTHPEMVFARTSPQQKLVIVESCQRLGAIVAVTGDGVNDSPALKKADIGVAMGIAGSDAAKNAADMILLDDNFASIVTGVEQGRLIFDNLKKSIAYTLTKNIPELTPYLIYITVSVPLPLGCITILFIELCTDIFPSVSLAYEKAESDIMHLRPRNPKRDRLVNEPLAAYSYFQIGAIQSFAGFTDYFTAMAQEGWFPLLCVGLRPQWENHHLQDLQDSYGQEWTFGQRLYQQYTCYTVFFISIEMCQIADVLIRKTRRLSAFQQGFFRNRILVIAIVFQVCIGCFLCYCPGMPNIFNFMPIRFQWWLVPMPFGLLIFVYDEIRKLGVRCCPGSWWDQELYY
T2 sequence (P18434 whole entry partner): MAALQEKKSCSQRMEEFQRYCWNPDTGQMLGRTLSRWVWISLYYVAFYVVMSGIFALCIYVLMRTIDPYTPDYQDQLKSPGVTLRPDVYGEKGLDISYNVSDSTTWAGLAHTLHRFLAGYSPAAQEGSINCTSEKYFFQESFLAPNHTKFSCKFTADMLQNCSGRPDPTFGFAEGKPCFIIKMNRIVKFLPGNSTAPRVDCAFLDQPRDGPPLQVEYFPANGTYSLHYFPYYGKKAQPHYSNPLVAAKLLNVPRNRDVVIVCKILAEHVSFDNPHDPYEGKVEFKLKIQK
T3 sequence (P19156 2-1034 limits assumed): as the sequence (P19156 2-1034 limits assumed) above
T3 sequence (P18434 whole entry partner): as the sequence (P18434 whole entry partner) above

Regarding `COc1cccc2c(N3CCc4ccccc4C3C)nc(Nc3ccc(F)cc3C)nc12.CS(=O)(=O)O` (stereo not drawn) [Example 60, 2-(4-Fluoro-2-MethylPhenyl-Amino)-8-Methoxy-4-(1-Methyl-1,2,3,4-Tetrahydroisoquinoline-2-Yl)Quinazoline Methanesulfonate], in experiment [1], the Effect ratio is listed as 5.20 and the IC50 is 1.8 µM. The “Relative Acid Output” value in the experiment with gastric secretion is reported as 0.84.
The like results for `COc1cccc2c(N3CCc4ccccc4C3C)nc(Nc3ccc(F)cc3C)nc12.O=C(O)CC(O)C(=O)O` (stereo not drawn) [Example 61, 2-(4-Fluoro-2-Methylphenyl-Amino)-8-Methoxy-4-(1-Methyl-1,2,3,4-Tetrahydroisoquinoline-2-Yl)Quinazoline Malate] were, in that order, 4.42, 2.1 µM and 0.76.
For the compound `CCCC(=O)c1cnc2c(OC)cccc2c1Nc1ccccc1C` [SK&F96067], the “The gastric secretion inhibition (%)” value in experiment [2] (0.5 mg/kg) worked out at 29.8%; in experiment [2] (1.0 mg/kg) it was 57.1%; in experiment [2] (3.0 mg/kg) it was 75.9%. The ED50 amounted to 0.96 mg/kg in experiment [2] (Rattus norvegicus, read-out: ED50, gastric secretion inhibition) and 1.85 mg/kg in experiment [3] (Rattus norvegicus). The “The gastric secretion inhibition” value in experiment [3] (1.0 mg/kg) worked out at 32.6%; in experiment [3] (3.0 mg/kg) it was 64.0%; in experiment [3] (5.0 mg/kg), 77.3%. Also, the “Competitive inhibition with K+ at the K+ binding site of proton pump” value in experiment [4] (Lineweaver-Burk plot, KCl 0.1 to 30 mM) was “inhibited competitively with K^+”. In addition, the inhibition constant Ki in experiment [4] (Lineweaver-Burk, versus K+, pH 7.0) came out at 0.7 µM. In addition, the “Reversibility of the inhibition of the enzyme activity” value in experiment [5] (conclusion from Table 4) is listed as “reversible”. In experiment [5] (pH 6.4, Example 34 at 6 μM, omeprazole and SK&F96067 at 60 μM), the “Inhibition of H+/K+ ATPase activity before Dilution and Washout” value is reported as 80%.
